In the supplement of paper PMC10307832:

Columns and labels:
Experiment in all cases: relative viability (nuclei count vs DMSO), 5 days (fraction); higher = more cells survive
[1] = compound: CC1=CC(=NN1)NC2=CC(=NC(=N2)/C=C/C3=CC=CC=C3)N4CCN(CC4)C + COc1cc2c(Oc3ccc(NC(=O)C4(C(=O)Nc5ccc(F)cc5)CC4)cc3F)ccnc2cc1OCCCN1CCOCC1 [Foretinib] (partner 0.25 µM)
In short: (§1)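 Lung cancer cell lines were seeded in 1536-well plates and dosed by pin tool the next day, with either a single drug or a fixed anchor-drug dose combined with five library-drug doses (not always all listed) spaced in √10 steps. Five days later, one step fixed the cells and stained their nuclei (final 0.05% Triton X-100, 1% formaldehyde, 1 ug/ml Hoechst), and nuclei were counted on 4× images. Relative viability is the nuclei count in treated wells divided by the count in vehicle wells, and each value is the median of duplicate plates.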

[2] = compound: CC1=CC(=NN1)NC2=CC(=NC(=N2)/C=C/C3=CC=CC=C3)N4CCN(CC4)C + NC(=O)Nc1cc(-c2cccc(F)c2)sc1C(=O)N[C@H]1CCCNC1 [AZD7762] (partner 0.2 µM)
In short: as §1

[3] = compound: COC1=CC(c2cc3ccccc3[nH]2)=N/C1=C\c1[nH]c(C)cc1C [Obatoclax] + COc1cccc2cc(-c3nc([C@H]4CC[C@H](C(=O)O)CC4)n4ncnc(N)c34)[nH]c12 [OSI-027] (partner 0.5 µM)
In short: as §1

[4] = compound: COC1=CC(c2cc3ccccc3[nH]2)=N/C1=C\c1[nH]c(C)cc1C [Obatoclax] + C[C@@H](Oc1cc(-c2cnn(C3CCNCC3)c2)cnc1N)c1c(Cl)ccc(F)c1Cl [Crizotinib] (partner 1 µM)
In short: as §1

Cell Line	relative viability ([1]; first compound 0.08 µM)	relative viability ([1]; first compound 0.253 µM)	relative viability ([1]; first compound 0.8 µM)	relative viability ([1]; first compound 2.53 µM)	relative viability ([1]; first compound 8 µM)	relative viability ([2]; first compound 0.08 µM)	relative viability ([2]; first compound 0.253 µM)	relative viability ([2]; first compound 0.8 µM)	relative viability ([2]; first compound 2.53 µM)	relative viability ([2]; first compound 8 µM)	relative viability ([3]; first compound 0.01 µM)	relative viability ([3]; first compound 0.03162 µM)	relative viability ([3]; first compound 0.1 µM)	relative viability ([3]; first compound 0.3162 µM)	relative viability ([3]; first compound 1 µM)	relative viability ([4]; first compound 0.01 µM)	relative viability ([4]; first compound 0.03162 µM)	relative viability ([4]; first compound 0.1 µM)	relative viability ([4]; first compound 0.3162 µM)	relative viability ([4]; first compound 1 µM)
NCI-H647	1.14	1.23	1.27	0.8	0.104	0.328	0.598	0.499	0.103	0.0452	0.606	0.692	0.585	0.346	0.184	0.997	1.13	0.762	0.286	0.133
NCI-H727	0.823	0.916	0.679	0.512	0.272	0.571	0.427	0.601	0.55	0.381	0.776	0.554	0.857	0.61	0.453	0.828	0.792	0.832	0.87	0.605
NCI-H838	0.99	1.14	0.965	0.798	0.131	0.963	1.09	0.99	0.782	0.623	0.498	0.367	0.46	0.385	0.284	0.848	0.959	0.827	0.77	0.777
NCI-H1355	0.879	1.05	0.985	0.743	0.18	0.779	0.802	0.778	0.581	0.15	0.391	0.386	0.462	0.422	0.399	1.13	0.93	1.04	1.03	0.915
NCI-H1437	1.19	1.31	1.3	1.25	0.474	1.17	1.17	1.21	1.05	0.416	0.868	0.889	0.835	0.859	0.752	0.804	0.857	0.861	0.896	1.03
NCI-H1651	0.732	0.899	0.913	0.447	0.162	0.437	0.483	0.463	0.335	0.0886	0.628	0.712	0.804	0.428	0.252	0.906	0.831	0.863	0.89	0.891
NCI-H1666	1.02	0.948	1	0.739	0.33	0.892	0.786	0.811	0.701	0.501	0.881	0.89	0.95	0.443	0.5	1.08	1.04	0.867	0.284	0.265
NCI-H1734	0.816	0.828	0.815	0.447	0.161	0.524	0.508	0.537	0.184	0.12	0.648	0.612	0.569	0.465	0.254	0.665	0.701	–	0.625	0.447
NCI-H1755	0.9	0.962	0.866	0.622	0.297	0.448	0.471	0.396	0.296	0.184	0.768	0.709	0.667	0.742	0.763	0.846	0.833	0.813	0.925	0.867
NCI-H1915	1.01	1.13	1.06	0.817	0.386	0.76	0.698	0.754	0.304	0.352	0.613	0.585	0.584	0.604	0.546	0.898	0.835	0.864	0.877	0.901
NCI-H1944	0.916	0.949	0.853	0.535	0.216	0.539	0.524	0.469	0.229	0.117	0.457	0.383	0.381	0.415	0.448	0.975	1.05	1.05	1.06	1.02
NCI-H1975	0.928	1.02	0.795	0.326	0.128	0.692	0.872	0.746	0.429	0.174	0.801	0.665	–	0.511	0.177	0.969	0.897	0.962	0.79	0.518
NCI-H1993	0.754	0.911	0.763	0.594	0.447	0.712	0.622	0.775	0.33	0.3	0.501	0.551	0.623	0.526	0.528	0.922	0.916	1.02	0.932	0.986
NCI-H2085	0.972	1.04	0.842	0.552	0.227	0.95	1.09	0.882	0.272	0.186	0.818	0.917	0.587	0.506	0.359	0.961	0.865	0.791	0.798	0.334
NCI-H2087	1.05	1.14	1.02	0.336	0.111	1.27	1.4	1.39	0.703	0.176	0.768	0.525	0.529	0.333	0.159	0.818	0.864	0.83	0.768	0.294
NCI-H2126	1.06	1.09	1.19	1.03	0.587	0.982	1.06	1.02	0.825	0.873	0.766	0.546	0.878	0.651	0.736	1.06	0.987	0.952	1.02	0.965
